{"source": "patent US9409880B2", "about": "“Modulators of TLR3/dsRNA complex and uses thereof” (The Regents of the University of Colorado, a body corporate, priority 2011, dated 2016)", "key": {"RANTES": {"tested_on": "RANTES", "experiment": "In vivo poly IC-induced RANTES production", "set-up": "species or system mice"}, "TLR4": {"target": "T1, TLR4 (Mus musculus, UniProt Q9QUK6)", "T1 construct": "endogenous in cells; host or cells: RAW 264.7", "T1 sequence (Q9QUK6 26-835)": "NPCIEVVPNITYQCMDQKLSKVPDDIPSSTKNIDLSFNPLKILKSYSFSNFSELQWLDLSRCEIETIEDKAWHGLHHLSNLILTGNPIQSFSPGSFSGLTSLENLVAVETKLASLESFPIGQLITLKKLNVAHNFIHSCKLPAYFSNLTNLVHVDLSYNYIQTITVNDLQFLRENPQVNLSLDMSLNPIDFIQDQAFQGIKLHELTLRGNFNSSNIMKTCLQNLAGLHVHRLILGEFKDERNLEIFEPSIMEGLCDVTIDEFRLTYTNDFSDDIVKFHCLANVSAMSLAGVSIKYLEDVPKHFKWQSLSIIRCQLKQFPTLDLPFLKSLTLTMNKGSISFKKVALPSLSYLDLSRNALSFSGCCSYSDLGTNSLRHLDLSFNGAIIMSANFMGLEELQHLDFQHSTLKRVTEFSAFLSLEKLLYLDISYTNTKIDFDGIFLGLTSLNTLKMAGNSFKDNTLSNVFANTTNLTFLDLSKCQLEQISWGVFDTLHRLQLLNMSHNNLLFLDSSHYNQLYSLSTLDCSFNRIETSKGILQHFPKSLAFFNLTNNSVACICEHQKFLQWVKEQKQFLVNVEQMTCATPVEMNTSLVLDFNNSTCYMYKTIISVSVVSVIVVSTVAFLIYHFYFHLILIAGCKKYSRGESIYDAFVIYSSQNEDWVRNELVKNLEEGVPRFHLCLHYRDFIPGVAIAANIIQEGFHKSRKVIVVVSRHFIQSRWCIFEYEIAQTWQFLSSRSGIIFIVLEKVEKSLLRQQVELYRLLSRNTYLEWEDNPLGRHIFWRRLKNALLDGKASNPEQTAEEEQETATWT", "T1 sequence (Q9JHF9 19-160 partner)": "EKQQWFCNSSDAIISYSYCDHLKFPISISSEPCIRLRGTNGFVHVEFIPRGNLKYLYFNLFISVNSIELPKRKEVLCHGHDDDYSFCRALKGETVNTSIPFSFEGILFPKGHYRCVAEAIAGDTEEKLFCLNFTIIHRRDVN", "experiment": "RAW264.7 cell nitric oxide TLR selectivity assay (LPS)", "type": "cell-based", "settings": "27 μM"}, "TLR2/6": {"target": "T2, TLR2/6 (Mus musculus, UniProt Q9EPW9+Q9QUN7)", "T2 construct": "endogenous in cells; host or cells: RAW 264.7", "T2 sequence (Q9QUN7 25-784)": "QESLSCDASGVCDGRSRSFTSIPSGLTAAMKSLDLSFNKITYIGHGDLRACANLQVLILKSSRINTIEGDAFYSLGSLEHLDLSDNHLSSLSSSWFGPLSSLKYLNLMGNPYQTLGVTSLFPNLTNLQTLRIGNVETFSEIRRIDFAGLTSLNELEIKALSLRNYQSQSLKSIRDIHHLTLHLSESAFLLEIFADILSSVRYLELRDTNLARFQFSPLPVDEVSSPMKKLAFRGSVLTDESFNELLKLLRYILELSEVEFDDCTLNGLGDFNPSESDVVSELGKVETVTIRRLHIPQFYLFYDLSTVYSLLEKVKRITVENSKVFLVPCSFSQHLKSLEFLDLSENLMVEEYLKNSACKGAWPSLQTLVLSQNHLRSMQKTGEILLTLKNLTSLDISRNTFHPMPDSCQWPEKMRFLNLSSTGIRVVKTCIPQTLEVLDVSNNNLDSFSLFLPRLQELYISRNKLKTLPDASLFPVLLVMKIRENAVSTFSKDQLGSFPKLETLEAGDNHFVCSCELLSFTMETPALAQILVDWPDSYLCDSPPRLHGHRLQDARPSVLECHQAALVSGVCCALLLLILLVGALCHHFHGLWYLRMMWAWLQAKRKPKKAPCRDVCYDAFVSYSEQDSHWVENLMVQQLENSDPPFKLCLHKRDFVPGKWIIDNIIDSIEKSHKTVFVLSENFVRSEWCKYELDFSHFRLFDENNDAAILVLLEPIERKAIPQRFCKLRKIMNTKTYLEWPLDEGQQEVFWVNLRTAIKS", "T2 sequence (Q9EPW9 28-795)": "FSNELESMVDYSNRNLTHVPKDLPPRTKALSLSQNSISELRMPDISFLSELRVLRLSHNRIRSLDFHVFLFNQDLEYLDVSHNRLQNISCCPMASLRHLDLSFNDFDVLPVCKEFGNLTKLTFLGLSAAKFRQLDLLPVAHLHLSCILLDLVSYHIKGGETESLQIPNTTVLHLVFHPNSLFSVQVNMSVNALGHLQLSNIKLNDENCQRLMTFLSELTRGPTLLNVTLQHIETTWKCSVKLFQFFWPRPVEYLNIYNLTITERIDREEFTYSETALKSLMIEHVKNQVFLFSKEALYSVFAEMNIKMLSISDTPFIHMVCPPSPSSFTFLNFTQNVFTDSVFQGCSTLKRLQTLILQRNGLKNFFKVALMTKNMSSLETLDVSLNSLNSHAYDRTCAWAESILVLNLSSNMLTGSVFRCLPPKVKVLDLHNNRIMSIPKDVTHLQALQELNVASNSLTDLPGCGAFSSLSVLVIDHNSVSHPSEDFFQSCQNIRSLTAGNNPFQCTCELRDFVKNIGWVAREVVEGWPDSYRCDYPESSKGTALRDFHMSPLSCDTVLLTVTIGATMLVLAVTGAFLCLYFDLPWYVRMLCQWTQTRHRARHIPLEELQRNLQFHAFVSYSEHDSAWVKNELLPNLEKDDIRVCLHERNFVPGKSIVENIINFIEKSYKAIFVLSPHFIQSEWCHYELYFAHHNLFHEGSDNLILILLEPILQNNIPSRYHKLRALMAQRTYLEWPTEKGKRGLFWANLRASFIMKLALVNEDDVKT", "experiment": "RAW264.7 cell nitric oxide TLR selectivity assay (FSL-1)", "type": "cell-based", "settings": "27 μM"}, "representative kinases": {"tested_on": "representative kinases", "experiment": "Kinase profiling", "type": "biochemical", "settings": "10 μM"}, "TLR3": {"target": "T3, TLR3 (Homo sapiens, UniProt O15455)", "T3 construct": "purchased R &D", "T3 sequence (O15455 24-904)": "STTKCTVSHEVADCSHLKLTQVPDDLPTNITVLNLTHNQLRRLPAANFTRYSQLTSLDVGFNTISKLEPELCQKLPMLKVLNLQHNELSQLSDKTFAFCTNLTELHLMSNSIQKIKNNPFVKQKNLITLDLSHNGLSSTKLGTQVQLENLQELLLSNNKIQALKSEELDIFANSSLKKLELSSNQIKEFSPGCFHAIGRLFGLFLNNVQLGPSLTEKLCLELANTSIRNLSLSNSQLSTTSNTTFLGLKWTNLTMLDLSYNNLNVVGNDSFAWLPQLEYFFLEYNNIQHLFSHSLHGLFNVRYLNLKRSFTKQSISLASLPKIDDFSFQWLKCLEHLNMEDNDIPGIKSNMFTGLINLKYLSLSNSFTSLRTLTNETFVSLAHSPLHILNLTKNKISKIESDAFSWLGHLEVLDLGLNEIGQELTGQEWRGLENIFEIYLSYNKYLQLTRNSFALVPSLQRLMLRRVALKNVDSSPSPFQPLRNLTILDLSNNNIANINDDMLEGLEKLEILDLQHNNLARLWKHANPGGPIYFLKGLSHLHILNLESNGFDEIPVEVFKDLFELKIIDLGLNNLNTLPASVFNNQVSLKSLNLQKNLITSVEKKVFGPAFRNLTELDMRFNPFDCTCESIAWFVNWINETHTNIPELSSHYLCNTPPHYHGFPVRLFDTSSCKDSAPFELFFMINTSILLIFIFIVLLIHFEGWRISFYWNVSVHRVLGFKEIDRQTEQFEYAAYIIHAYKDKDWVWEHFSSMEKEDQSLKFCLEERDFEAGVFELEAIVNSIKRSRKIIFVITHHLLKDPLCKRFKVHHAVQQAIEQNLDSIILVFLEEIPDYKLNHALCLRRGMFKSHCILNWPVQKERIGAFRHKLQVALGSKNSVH", "experiment": "Fluorescence anisotropy assay, competition with Rhodamine labeled Poly IC", "type": "binding", "description": "The anisotropy of Rhodamine labeled Poly IC increased from approximately 0.116 to 0.171 upon addition of TLR3 (excitation=546 nm; emission=576 nm).\nIn 500 μL Tris buffer (pH=7.2) add 5 μL (1 μg/mL) Rhodamine labeled Poly IC (Invivogen), test the anisotropy at excitation of 546 nm and emission of 576 nm (Horiba Fluorolog 3). An addition 3 μL (20 μM) of TLR3 (R &D) was added in the buffer, then test the anisotropy again. Following, 4a was added in the buffer from 0 to 68 μM, and the fluorescence anisotropy was tested when the concentration was changed."}, "[1]": {"tested_on": "XMRV-induced IP-10/CXCL10 production", "experiment": "XMRV-induced IP-10 mRNA (RT-PCR) in LNCaP cells", "type": "cell-based, human"}, "[2]": {"tested_on": "poly IC-induced impaired re-endothelialization", "experiment": "Vascular repair: re-endothelialization after carotid artery denudation", "type": "in vivo, Mice", "settings": "27 μg i.p. every 48 hours; 100 μg poly IC i.v.; Evan's blue staining", "description": "Mice were subjected to a 4 mm long electric denudation of the left common carotid artery. These C57B1/6J littermates were then treated with 100 μg of poly IC or vehicle (NaCl 0.9%) via i.v. injection every 48 hours for five days. Half of the mice in each group were also treated with 27 μg compound 4a or vehicle (DMSO) via i.p. injection every 48 hours. The mice were then sacrificed and aortic arch including both common carotid arteries excised. The remaining endothelial lesion was visualized using Evan's blue staining."}}, "note": "“Also recorded” adds a separate entry of the source."}
{"smiles": "O=C(N[C@H](Cc1ccccc1)C(=O)O)c1sc2cc(F)ccc2c1Cl", "note": "[Compound 4a, (R)-2-(3-chloro-6-fluorobenzo[b]thiophene-2-carboxamido)-3-phenylpropanoic acid]", "values": [{"measurement": "RANTES production with increased pre-treatment doses", "setting": "RANTES; pretreatment before poly IC i.v.", "value": "decrease of RANTES in a dose-dependent manner; also recorded: decreasing RANTES production"}, {"measurement": "RANTES production with increasing poly IC doses", "setting": "RANTES; pretreatment with 27 μg", "value": "significant decrease in RANTES production; also recorded: decreased RANTES production"}, {"measurement": "effect on TLR4 signaling", "setting": "TLR4", "value": "without significantly affecting other TLRs"}, {"measurement": "effect on TLR2/6 signaling", "setting": "TLR2/6", "value": "without significantly affecting other TLRs"}, {"measurement": "effect on kinase activities", "setting": "representative kinases", "value": "did not significantly affect activities"}, {"measurement": "TLR3 binding competition with dsRNA", "setting": "TLR3", "value": "competes with dsRNA in binding to TLR3"}, {"measurement": "Ki", "setting": "TLR3; competes with dsRNA for binding to TLR3", "value": "2.96 ± 0.32", "unit": "µM"}, {"measurement": "anisotropy of Rhodamine labeled Poly IC", "setting": "TLR3; compound concentration increased to 68 μM", "value": "decreased the anisotropy to background levels"}, {"measurement": "XMRV-induced IP-10 production", "setting": "[1]; 50 μM, RT-PCR of IP-10 mRNA", "value": "inhibits XMRV-induced IP-10 production"}, {"measurement": "XMRV-induced IP-10/CXCL10 production", "setting": "[1]; 10 and 25 μM, RT-PCR", "value": "inhibition of XMRV-induced IP-10/CXCL10 production"}, {"measurement": "poly IC-induced impaired re-endothelialization", "setting": "[2]", "value": "significantly improves poly IC-induced impaired re-endothelialization"}]}
